PMC6934184, “Selective DNA-PKcs inhibition extends the therapeutic index of localized radiotherapy and chemotherapy” (The Journal of Clinical Investigation, 2019)

Legend:
HCT116 parental cells = assay: caspase activity after irradiation; type: cell-based, Human; conditions: 1 µM, 1 hour prior to 2 Gy; 72 hours
Description: (§1) Supplemental Figure 19. […] Fold […]
(§2) caspase activity in HCT116 parental and p53 null (-/-) cells 72 hours following pre-treatment with NU5455 (1 µM) or DMSO for 1 hour prior to irradiation (0 or 2 Gy). Fold caspase activity was normalized to cell density determined by SRB staining. Data represent the mean ± SEM from three independent experiments. NS = not significant, **** P < 0.0001 (2-way ANOVA).

[1] = test system: HCT116 p53 null (-/-) cells; assay: caspase activity after irradiation; type: cell-based, Human; conditions: 1 µM, 1 hour prior to 2 Gy; 72 hours
Description: as §1, §2

lung = assay: radiation-induced lung fibrosis, Masson's trichrome, modified Ashcroft score; type: in vivo, C57BL/6 mice; conditions: 30 mg/kg oral 30 min before and 5 h after each of 4 × 5 Gy; 24 weeks
Description: Whole-thorax irradiation (5 Gy) was administered to female C57BL/6 mice (6–8 weeks old) on days 1, 4, 7, and 10 with vehicle or NU5455 treatment. Whole lung sections were stained with Masson’s trichrome to visualize collagen deposition and scored using the modified Ashcroft scale proposed by Hübner et al. ([55]). Further details are provided in Supplemental Methods. […]
combined with 10 Gy thorax irradiation ( n = 6 - 7/group). For whole-thorax irradiation, anaesthetized mice were placed in the supine position in a customized rig. The whole thorax was exposed to X-ray radiation generated by the Gulmay Medical RS320 irradiation system (2.034 Gy/minute). The rest of the body was protected by lead shields. […]
Tumor growth in the remaining mice was monitored by bioluminescent imaging on days 0, 4, 8 and 15 post-treatment. […] Data were analyzed using LivingImage software (PerkinElmer). […]
Tissues were fixed in 4% paraformaldehyde (PFA) and paraffin -embedded. […] One tissue section from each of 3 mice per group was examined, and the whole section (excluding necrotic areas) analyzed using ImageScope analysis software (Aperio Technologies). γH2AX and 53BP1 foci were manually counted in 200 nuclei from each tumor sample. The percentage of γH2AX and 53BP1 positive nuclei in lung epithelial cells was quantified manually in normal lung samples across 5 randomly-chosen fields of view per […]

[2] = plasma pharmacokinetics across mouse strains and doses; type: in vivo
Description: by determining the absorbance at 570 nm of SRB stain dissolved in Tris base (10 mM, pH 10.5) using a spectrophotometer (BMG Labtech).
In vivo pharmacokinetic analyses
All animal experiments were performed in accordance with the Animals (Scientific Procedures) 1986 Act. 8-9 week old mice were purchased from Charles River Laboratories and housed under specific pathogen-free conditions under 12 hour light/dark cycles.
Female CD-1, CD-1 nude, BALB/c nude and C57BL/6 mice were treated with NU5455 (30 or 100 mg/kg prepared in 1% (v/v) acetic acid or NMP:Encapsin (30% aq):PEG4000 (1:6:3 v/v/v) dosed by oral gavage. Blood samples were collected into heparinized tubes at 15, 30, 60, 180 and 360 minutes post-gavage.
Blood samples were centrifuged at 6700 x g for 3 minutes, the plasma removed and stored at -20°C prior to analysis for drug by HPLC with fluorescence detection. Aliquots of plasma (50 µl) were vigorously vortexed with acetonitrile (450 µl) and the precipitate removed by centrifugation at 6700 x g for 5 minutes. […]
Samples (20 µl) were applied to a 10 x 0.46 cm Genesis C18 4 µm column (Grace Vydac) fitted with an in-line filter. […] Analytes were detected by fluorescence at 390 nm following excitation at 242 nm. Plasma concentrations were determined using linear standard curves (0.01 µM – 10 µM, R2 > 0.98) generated by extracting compounds from […]

In the case of CN(C(=O)CN1CCOCC1)c1ccc2sc3c(-c4cccc5c(=O)cc(N6CC7CCC(C6)O7)oc45)cccc3c2c1 [NU5455], the “radiation-induced apoptosis (fold caspase activity)” value (HCT116 parental cells) is reported as “increases radiation-induced apoptosis”, the “radiation-induced apoptosis (fold caspase activity)” value [1] is reported as “increases radiation-induced apoptosis” and the radiation-induced lung fibrosis (lung) is reported as “did not exacerbate radiation-induced lung fibrosis”. For the same compound, the “plasma pharmacokinetic profile, CD-1 nude versus C57BL/6 mice” value ([2]; 30 mg/kg oral) was “comparable” and the “duration of plasma concentrations” value ([2]; 100 mg/kg oral, versus 30 mg/kg) was “longer duration”.
